From ChEMBL document CHEMBL1687873, “Virtual screening studies on HIV-1 reverse transcriptase inhibitors to design potent leads” (Eur J Med Chem, 2011)

Target: Human immunodeficiency virus type 1 reverse transcriptase (Human immunodeficiency virus 1, UniProt Q72547)
Assay: Inhibition of Human immunodeficiency virus 1 reverse transcriptase

Row | Structure (SMILES) | IC50 [nM]
1 | CCC1=C(Sc2ccccc2)C(COCCc2ccccc2)C(=S)NC1=O (centres undefined) | 473
2 | CCC1=C(Sc2ccccc2)C(COCc2ccc(C)cc2)C(=S)NC1=O (centres undefined) | 422
3 | CC1=C(Sc2cccc(Cl)c2)C(COCCO)C(=O)NC1=O (centres undefined) | 2.2
4 | CC1=C(Sc2cccc(I)c2)C(COCCO)C(=O)NC1=O (centres undefined) | 4
5 | CCOCC1C(=S)NC(=O)C(CC)=C1Sc1ccccc1 (centres undefined) | 137
6 | CC(C)C1=C(Sc2ccccc2)C(COCCO)C(=O)NC1=O (centres undefined) | 31
7 | CCC1=C(Sc2ccccc2)C(COCc2ccc(Cl)cc2)C(=S)NC1=O (centres undefined) | 404
8 | CCOCC1C(=O)NC(=O)C(CC)=C1Sc1cc(C)cc(C)c1 (centres undefined) | 210
9 | CCOCC1C(=O)NC(=O)C(CC)=C1Sc1ccccc1 (centres undefined) | 100
10 | CC1=C(Sc2cccc([N+](=O)[O-])c2)C(COCCO)C(=O)NC1=O (centres undefined) | 5.4
11 | CCC1=C(Sc2cc(C)cc(C)c2)C(COCCO)C(=O)NC1=O (centres undefined) | 80
12 | CCC1=C(Sc2ccccc2)C(COC2CCCCC2)C(=S)NC1=O (centres undefined) | 240
13 | CC1=C(Sc2ccccc2)C(COCc2ccccc2)C(=O)NC1=O (centres undefined) | 111
14 | CC1=C(Sc2cccc(F)c2)C(COCCO)C(=O)NC1=O (centres undefined) | 1.7
15 | CC1=C(Sc2cc(Cl)cc(Cl)c2)C(COCCO)C(=O)NC1=O (centres undefined) | 27
16 | CC1=C(Sc2cc(C)cc(C)c2)C(COCCO)C(=O)NC1=O (centres undefined) | 24
17 | CC1=C(Sc2cccc(Br)c2)C(COCCO)C(=O)NC1=O (centres undefined) | 3.1
18 | Cc1cc(C)cc(SC2=C(C(C)C)C(=O)NC(=O)C2COCCO)c1 (centres undefined) | 54
19 | CC1=C(Sc2cccc(C(F)(F)F)c2)C(COCCO)C(=O)NC1=O (centres undefined) | 0.52
20 | CC1=C(Sc2cccc(O)c2)C(COCCO)C(=O)NC1=O (centres undefined) | 6.9
21 | CCOCC1C(=O)NC(=O)C(CC)=C1Sc1cc(Cl)cc(Cl)c1 (centres undefined) | 597
22 | COc1cccc(SC2=C(C)C(=O)NC(=O)C2COCCO)c1 (centres undefined) | 20
23 | CCOCC1C(=S)NC(=O)C(CC)=C1Sc1cc(C)cc(C)c1 (centres undefined) | 300
24 | CCC1=C(Sc2ccccc2)C(COCC2CCCCC2)C(=S)NC1=O (centres undefined) | 375
